Measured values as given in US20230027864A1, “COMPOSITIONS AND METHODS FOR DELIVERY OF AGENTS TO IMMUNE CELLS” (ModernaTX, Inc., priority 2018, published 2023).

Tests used:
T cells [1] = assay: Additional LNPs: T cell transfection in vitro, mOX40L mRNA, labeled LNPs; assay type: cell-based, human; settings: for immune cell delivery potentiating ability in T cells, sterol panel: structural component, FIG. 44; for immune cell delivery potentiating ability in T cells, amino lipid panel: ionizable lipid component, FIG. 43; for immune cell delivery potentiating ability in T cells, helper lipid panel: phospholipid component, FIG. 45; for immune cell delivery potentiating ability in T cells, other ionizable lipids: third series, against Compound I-18 formulations, FIG. 47
Experimental: In this Example, additional LNPs comprising various lipid components and at different ratios were made and tested for their ability to transfect T cells in vitro. Transfection was performed as in Example 5 using LNPs encapsulating an mRNA encoding mouse OX40L. LNPs were labeled and the results were determined for the mean % cells with LNPs associated, the mean % cells expressing mOX40L and the % of LNP-associated cells expressing mOX40L, as described hereinbefore.

T cells [2] = assay: LNP association and GFP mRNA expression in T cells of human PBMCs; assay type: cell-based; settings: for immune cell delivery potentiating ability in T cells, amino lipid panel: ionizable lipid component of the LNP, FIG. 30
Experimental: In a second series of experiments, additional compounds, were tested in the LNPs for their ability to enhance delivery to T cells. For these experiments, the association of the LNP with cells and the expression of mRNA-encoding protein within the transfected cells was assessed at the cell-by-cell level. Peripheral blood mononuclear cells (PBMCs) from human donors were used. PBMCs were predominately T cells (40-60%), B cells (3-15%), and monocytes (15-35%), but also contained small numbers of other cell types. LNPs were incubated with serum or PBS for 30 minutes and then added to the PBMCs. The LNP concentration was 0.050 mg/ml, the LNP volume was 0.1 ml.
LNPs contained 0.1% Rhodamine-DOPE in addition to the other LNP components to facilitate detection. Thus, the ratios set forth in the tables below include 0.1 for the rhodamine label. For example, 50:10:10:27.9:2:0.1 AL:DSPC:chol:sterol:Cmp 428 indicates 50% amino lipid as the ionizable lipid, 10% DSPC as the phospholipid, 10% cholesterol, 27.9% phytosterol, 2% Compound 428 as the PEG lipid and 0.1% for the rhodamine-DOPE label. To prepare a non-labeled LNP, the same ratios are used except that the 0.1% rhodamine label is omitted and an additional 0.1% of structural lipid (cholesterol or cholesterol/phytosterol blend) is used (e.g., 27.9% becomes 28%).
Cells were sorted by flow cytometry into subsets based on expression of certain markers: CD3 (T cells), CD20 (B cells), and CD3-, CD20-, CD14+(Monocytes).
mRNA encoding GFP was used as a model agent to effect expression of an intracellular protein.
When conducting flow cytometry, the Y-axis was signal from the rhodamine tag on the LNP and the X-axis was the GFP signal showing expression of the protein.
The “associated” population is any rhodamine+ and/or GFP+ cell and the percent of these cells was calculated by dividing by the total number of cells. The “expression” population is any GFP+ cell and the percent of these cells was calculated by dividing by the total number of cells. The percent of associated cells expressing was obtained by dividing the % expressing cells by the % associated cells.

Compound | immune cell delivery potentiating ability in T cells, sterol panel (T cells [1]) | immune cell delivery potentiating ability in T cells, amino lipid panel (T cells [1]) | further results
CC(C)[C@@H](C)/C=C/[C@@H](C)[C@H]1CC[C@H]2[C@@H]3CC=C4C[C@@H](O)CC[C@]4(C)[C@H]3CC[C@]12C [Compound S-148, brassicasterol] | exhibited immune cell delivery potentiating ability in T cells | – | –
CCCCCCCCC(CC)OC(=O)CCCCCCCN(CCCCCCCC(=O)OC(CCCCCCCC)CCCCCCCC)CCCCNc1c(NC)c(=O)c1=O (stereo not drawn) [Compound I-352] | – | exhibited immune cell delivery potentiating ability in T cells | –
CC(C)[C@H](C)CC[C@@H](C)[C@H]1CC[C@H]2[C@@H]3CC[C@H]4C[C@@H](O)CC[C@]4(C)[C@H]3CC[C@]12C [Compound 5-159] | exhibited immune cell delivery potentiating ability in T cells | – | –
CCCCCCCCC(C)OC(=O)CCCCCCCN(CCCCCCCC(=O)OC(CCCCCCCC)CCCCCCCC)CCCNc1c(NC)c(=O)c1=O (stereo not drawn) [Compound I-347] | – | exhibited immune cell delivery potentiating ability in T cells | –
CCC(/C=C/[C@@H](C)[C@H]1CC[C@H]2[C@@H]3CC=C4C[C@@H](O)CC[C@]4(C)[C@H]3CC[C@]12C)CC [Compound 5-160] | exhibited immune cell delivery potentiating ability in T cells | – | –
CCCCCCCCCOC(=O)CCCCCCCN(CCCCCCCC(=O)OC(CCCCCCCC)CCCCCCCC)CCCNc1c(NCC)c(=O)c1=O [Compound I-292] | – | exhibited immune cell delivery potentiating ability in T cells | immune cell delivery potentiating ability in T cells, amino lipid panel (T cells [2]): exhibited immune cell delivery potentiating ability in T cells
CCCCCCCCCC(=O)OCCCCCCCN(CCCCCCCC(=O)OC(CCCCCCCC)CCCCCCCC)CCCNc1c(NC)c(=O)c1=O [Compound I-309] | – | exhibited immune cell delivery potentiating ability in T cells | –
CC(C)[C@@H](C)CC[C@@H](C)[C@H]1CC[C@H]2[C@@H]3CC[C@H]4C[C@@H](O)CC[C@]4(C)[C@H]3CC[C@]12C [Compound S-151] | exhibited immune cell delivery potentiating ability in T cells | – | –
CCCCCCCCCCCCCCCCCC(=O)OC[C@H](COP(=O)([O-])OCC[N+](C)(C)C)OC(=O)CCCCCCCCCCCCCCCCC [DSPC, 1,2-distearoyl-sn-glycero-3-phosphocholine, reference compound] | – | – | immune cell delivery potentiating ability in T cells, helper lipid panel (T cells [2]; phospholipid component of the LNP, FIG. 32): exhibited immune cell delivery potentiating ability in T cells
CC[C@H](CC[C@@H](C)[C@H]1CC[C@H]2[C@@H]3CC[C@H]4C[C@@H](O)CC[C@]4(C)[C@H]3CC[C@]12C)C(C)C [Compound S-144, β-sitostanol] | exhibited immune cell delivery potentiating ability in T cells | – | –
CCCCCCCCC(CCC)OC(=O)CCCCCCCN(CCO)CCCCCCCC(=O)OC(CCCCCCCC)CCCCCCCC (stereo not drawn) [Compound I-50] | – | – | immune cell delivery potentiating ability in T cells, amino lipid panel (T cells [2]): exhibited immune cell delivery potentiating ability in T cells
CCCCCCCCC(CCC)OC(=O)CCCCCCCN(CCCCCCCC(=O)OC(CCCCCCCC)CCCCCCCC)CCCNc1c(NC)c(=O)c1=O (stereo not drawn) [Compound I-348] | – | exhibited immune cell delivery potentiating ability in T cells | –
CC[C@H](/C=C/[C@@H](C)[C@H]1CC[C@H]2[C@@H]3CC=C4C[C@@H](O)CC[C@]4(C)[C@H]3CC[C@]12C)C(C)C [Compound S-140] | exhibited immune cell delivery potentiating ability in T cells | – | –
CCCCCCCCC(CCC)OC(=O)CCCCCCCN(CCCCCCCC(=O)OC(CCCCCCCC)CCCCCCCC)CCCNS(C)(=O)=O (stereo not drawn) [Compound I-330] | – | – | immune cell delivery potentiating ability in T cells, amino lipid panel (T cells [2]): exhibited immune cell delivery potentiating ability in T cells
CCCCCCCCCCCOC(=O)CCCCCN(CCCCCCCC(=O)OC(CCCCCCCC)CCCCCCCC)CCCNc1c(NC)c(=O)c1=O [Compound I-317] | – | exhibited immune cell delivery potentiating ability in T cells | –
CC(C)C(CC[C@@H](C)[C@H]1CC[C@H]2[C@@H]3CC[C@H]4C[C@@H](O)CC[C@]4(C)[C@H]3CC[C@]12C)C(C)C [Compound 5-173] | exhibited immune cell delivery potentiating ability in T cells | – | –
CC(C)C(/C=C/[C@@H](C)[C@H]1CC[C@H]2[C@@H]3CC=C4C[C@@H](O)CC[C@]4(C)[C@H]3CC[C@]12C)C(C)C [Compound 5-167] | exhibited immune cell delivery potentiating ability in T cells | – | –
CCCCCCCCC(C)OC(=O)CCCCCN(CCCCCCCC(=O)OC(CCCCCCCC)CCCCCCCC)CCCNc1c(NC)c(=O)c1=O (stereo not drawn) [Compound I-349] | – | exhibited immune cell delivery potentiating ability in T cells | –
CCCCCCCCC(C)OC(=O)CCCCCCCN(CCO)CCCCCCCC(=O)OC(CCCCCCCC)CCCCCCCC (stereo not drawn) [Compound I-48] | – | exhibited immune cell delivery potentiating ability in T cells | immune cell delivery potentiating ability in T cells, amino lipid panel (T cells [2]): exhibited immune cell delivery potentiating ability in T cells
CCCCCCCCCCCCCC(=O)OC[C@H](COP(=O)([O-])OCC[N+](C)(C)C)OC(=O)CCCCCCCCCCCCC [DMPC, 1,2-dimyristoyl-sn-glycero-phosphocholine, reference compound] | – | – | immune cell delivery potentiating ability in T cells, helper lipid panel (T cells [1]): exhibited immune cell delivery potentiating ability in T cells
CCC(/C=C/[C@@H](C)[C@H]1CC[C@H]2[C@@H]3CC=C4C[C@@H](O)CC[C@]4(C)[C@H]3CC[C@]12C)(CC)CC [Compound 5-166] | exhibited immune cell delivery potentiating ability in T cells | – | –
CCCCCC=CCC=CCCCCCCCCC(CCCCCCCCC=CCC=CCCCCC)OC(=O)CCCN(C)C (stereo not drawn) [MC3, heptatriaconta-6,9,28,31-tetraen-19-yl 4-(dimethylamino)butanoate, reference compound] | – | – | immune cell delivery potentiating ability in T cells, other ionizable lipids (T cells [1]): exhibited immune cell delivery potentiating ability in T cells
CCCCCCCCCCC(O)CN(CCCCC1NC(=O)C(CCCCN(CC(O)CCCCCCCCCC)CC(O)CCCCCCCCCC)NC1=O)CC(O)CCCCCCCCCC (stereo not drawn) [CKK-E12, reference compound] | – | – | immune cell delivery potentiating ability in T cells, other ionizable lipids (T cells [1]): exhibited immune cell delivery potentiating ability in T cells
CCCCCCCCC(CC)OC(=O)CCCCCN(CCCCCCCC(=O)OC(CCCCCCCC)CCCCCCCC)CCCNc1c(NC)c(=O)c1=O (stereo not drawn) [Compound I-350] | – | exhibited immune cell delivery potentiating ability in T cells | –
CCCCCCCCCCCCCCCC(=O)OC[C@H](COP(=O)([O-])OCC[N+](C)(C)C)OC(=O)CCCCCCCCCCCCCCC [DPPC, 1,2-dipalmitoyl-sn-glycero-3-phosphocholine, reference compound] | – | – | immune cell delivery potentiating ability in T cells, helper lipid panel (T cells [1]): exhibited immune cell delivery potentiating ability in T cells
CCCCCCCCCOC(=O)CCCCCCCN(CCCCCCCC(=O)OC(CCCCCCCC)CCCCCCCC)CCCCNc1c(NC)c(=O)c1=O [Compound I-351] | – | exhibited immune cell delivery potentiating ability in T cells | –
CC(C)[C@H](C)CC[C@@H](C)[C@H]1CC[C@H]2[C@@H]3CC=C4C[C@@H](O)CC[C@]4(C)[C@H]3CC[C@]12C [Compound S-143, campesterol] | exhibited immune cell delivery potentiating ability in T cells | – | –
CCCCCCCCC(CCC)OC(=O)CCCCCCCN(CCCO)CCCCCCCC(=O)OC(CCCCCCCC)CCCCCCCC (stereo not drawn) [Compound I-328] | – | – | immune cell delivery potentiating ability in T cells, amino lipid panel (T cells [2]): exhibited immune cell delivery potentiating ability in T cells
